Experimental data published in patent US11666636B2, “GLP-1R agonists and uses thereof” (priority 2017, dated 2023).

Tests used:
[1] = test system: serum inflammatory cytokines; details: rodent model; reported in literature; cited from earlier work
[2] = test system: liver inflammation, aortic atherosclerosis; details: rodent model; reported in literature; cited from earlier work
[3] = 6 days after infection; vs vehicle

Compound: exendin-4
- serum inflammatory cytokines during LPS-induced endotoxemia [1]: reduced
- aortic atherosclerosis [2]: reduced
- liver inflammation [2]: reduced

Compound: CCCCCCCCCCCCCCCC(=O)N[C@@H](CCC(=O)NCCCC[C@H](NC(=O)[C@H](C)NC(=O)[C@H](C)NC(=O)[C@H](CCC(N)=O)NC(=O)CNC(=O)[C@H](CCC(=O)O)NC(=O)[C@H](CC(C)C)NC(=O)[C@H](Cc1ccc(O)cc1)NC(=O)[C@H](CO)NC(=O)[C@H](CO)NC(=O)[C@@H](NC(=O)[C@H](CC(=O)O)NC(=O)[C@H](CO)NC(=O)[C@@H](NC(=O)[C@H](Cc1ccccc1)NC(=O)[C@@H](NC(=O)CNC(=O)[C@H](CCC(=O)O)NC(=O)[C@H](C)NC(=O)[C@@H](N)Cc1cnc[nH]1)[C@@H](C)O)[C@@H](C)O)C(C)C)C(=O)N[C@@H](CCC(=O)O)C(=O)N[C@@H](Cc1ccccc1)C(=O)N[C@H](C(=O)N[C@@H](C)C(=O)N[C@@H](Cc1c[nH]c2ccccc12)C(=O)N[C@@H](CC(C)C)C(=O)N[C@H](C(=O)N[C@@H](CCCNC(=N)N)C(=O)NCC(=O)N[C@@H](CCCNC(=N)N)C(=O)NCC(=O)O)C(C)C)[C@@H](C)CC)C(=O)O [GLP-1R agonist, liraglutide]
- plasma glucose levels [3]: no statistically significant changes
- plasma insulin levels [3]: no statistically significant changes
